pEC50, pIC50: −log10 of the molar value. Read-outs that look alike come from different tables or passages of the source.
Tests used:
[1] = test system: Human venous whole blood (IFN-γ); test: Human whole blood IFN-γ assay; format: cell-based; settings: human whole blood, anti-CD3 plus anti-CD28, 24 hours, read-out: INFg Whole Blood Normalized Agonist EC50
Protocol: Assay 10: Human Whole Blood IFN-γ Assay
Human venous whole blood (22.5 μL per well), obtained from healthy donors, was pre-treated with compounds for one hour at 37° C. in a humidified 95% air/5% CO2 incubator. The blood was stimulated with 2.5 μL anti-human CD3 and anti-CD28 mAb at a final concentration of 1 μg/mL each for 24 hours at 37° C. IFN-γ in the supernatants was measured using AlphLISA kit (Cat #AL217).

DGKα = DGKα (Homo sapiens (Human), UniProt P23743); test: biochemical; format: biochemical
DGKα, sequence (P23743 whole entry, looked up): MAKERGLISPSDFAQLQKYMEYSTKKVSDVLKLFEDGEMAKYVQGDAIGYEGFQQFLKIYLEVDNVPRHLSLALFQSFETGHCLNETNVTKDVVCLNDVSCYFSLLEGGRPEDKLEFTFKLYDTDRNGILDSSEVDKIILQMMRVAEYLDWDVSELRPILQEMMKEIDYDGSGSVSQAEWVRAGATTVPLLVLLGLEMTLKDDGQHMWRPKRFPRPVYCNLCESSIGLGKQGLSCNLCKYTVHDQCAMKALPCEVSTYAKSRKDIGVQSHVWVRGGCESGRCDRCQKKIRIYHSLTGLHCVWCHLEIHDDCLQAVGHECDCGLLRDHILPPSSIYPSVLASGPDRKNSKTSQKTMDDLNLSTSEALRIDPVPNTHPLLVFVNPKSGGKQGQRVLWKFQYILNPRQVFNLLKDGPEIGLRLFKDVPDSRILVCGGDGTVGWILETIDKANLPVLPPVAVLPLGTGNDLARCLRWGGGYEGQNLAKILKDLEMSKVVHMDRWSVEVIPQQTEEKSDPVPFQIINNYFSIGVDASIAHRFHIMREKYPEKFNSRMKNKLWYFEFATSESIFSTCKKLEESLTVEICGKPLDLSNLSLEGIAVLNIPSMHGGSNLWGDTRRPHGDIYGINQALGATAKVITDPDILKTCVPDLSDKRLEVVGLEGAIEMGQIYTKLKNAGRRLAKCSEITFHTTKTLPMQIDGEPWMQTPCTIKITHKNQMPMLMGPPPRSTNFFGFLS

human DGKζ = human DGKζ (Homo sapiens (Human), UniProt Q13574); test: biochemical; format: biochemical
human DGKζ, sequence (Q13574 whole entry, looked up): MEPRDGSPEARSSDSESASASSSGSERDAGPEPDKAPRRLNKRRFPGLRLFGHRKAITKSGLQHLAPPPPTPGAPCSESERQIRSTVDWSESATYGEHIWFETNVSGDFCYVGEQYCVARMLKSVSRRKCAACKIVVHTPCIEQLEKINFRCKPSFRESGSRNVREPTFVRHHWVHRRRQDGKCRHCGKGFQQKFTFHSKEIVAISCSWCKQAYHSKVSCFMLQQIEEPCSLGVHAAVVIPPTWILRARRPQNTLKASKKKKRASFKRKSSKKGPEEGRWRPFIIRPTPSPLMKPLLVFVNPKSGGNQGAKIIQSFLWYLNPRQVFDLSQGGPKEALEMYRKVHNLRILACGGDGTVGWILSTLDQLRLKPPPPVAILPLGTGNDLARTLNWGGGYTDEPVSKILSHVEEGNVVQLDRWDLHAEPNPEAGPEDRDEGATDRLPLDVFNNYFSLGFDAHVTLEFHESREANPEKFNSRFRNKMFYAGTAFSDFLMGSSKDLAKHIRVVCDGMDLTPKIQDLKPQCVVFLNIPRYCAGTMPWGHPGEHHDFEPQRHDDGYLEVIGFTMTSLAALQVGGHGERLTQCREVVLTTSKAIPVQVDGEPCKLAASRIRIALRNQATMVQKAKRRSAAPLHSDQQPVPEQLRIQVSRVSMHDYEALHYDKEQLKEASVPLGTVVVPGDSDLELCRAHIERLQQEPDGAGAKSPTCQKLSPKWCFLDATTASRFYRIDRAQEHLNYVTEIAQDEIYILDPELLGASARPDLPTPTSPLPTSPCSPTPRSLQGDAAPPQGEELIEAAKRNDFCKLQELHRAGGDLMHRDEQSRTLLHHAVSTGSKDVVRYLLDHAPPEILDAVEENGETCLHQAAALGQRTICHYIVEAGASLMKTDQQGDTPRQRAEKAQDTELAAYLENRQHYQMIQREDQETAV

[2] = liposome (LIPGLO) assay, read-out: DGKα LIPGLO IC50
[3] = liposome (LIPGLO) assay, read-out: DGKζ LIPGLO IC50
[4] = Table A, liposome (LIPGLO) assay, read-out: DGKα
[5] = Table A, liposome (LIPGLO) assay, read-out: DGKζ

Cn1c(=O)cc(N2CCC(Oc3ccc(Cc4ccccc4)cc3)CC2)c2nc(C#N)ccc21 [Example 55, 8-(4-(4-benzylphenoxy)piperidin-1-yl)-5-methyl-6-oxo-5,6-dihydro-1,5-naphthyridine-2-carbonitrile]
pEC50 ([1]; Homo sapiens, 24 h): 5.43
pIC50 (DGKα; [2]): 6.02
pIC50 (human DGKζ; [3]): 5.42

CCC(C)(C)c1ccc(OC2CCN(c3cc(=O)n(C)c4ccc(C#N)nc34)CC2)cc1 [Example 54, 5-methyl-6-oxo-8-(4-(4-(tert-pentyl)phenoxy)piperidin-1-yl)-5,6-dihydro-1,5-naphthyridine-2-carbonitrile]
pEC50 ([1]; Homo sapiens, 24 h): 5.64
pIC50 (DGKα; [2]): 6.27
pIC50 (human DGKζ; [3]): 5.68

CCC(C)(C)c1ccc(O[C@@H]2CCN(c3cc(=O)n(C)c4ccc(C#N)nc34)C[C@H]2C)cc1 [Example 82, 5-methyl-8-((3R,4R)-3-methyl-4-(4-(tert-pentyl)phenoxy)piperidin-1-yl)-6-oxo-5,6-dihydro-1,5-naphthyridine-2-carbonitrile]
pEC50 ([1]; Homo sapiens, 24 h): 6.19
pIC50 (DGKα; read-out: DGKα LIPGLO IC50): 7.52
pIC50 (human DGKζ; read-out: DGKζ LIPGLO IC50): 5.41

C[C@@H]1CN(c2cc(=O)n(C)c3ccc(C#N)nc23)CC[C@H]1Oc1cccc2c1OCCCO2 [Example 132, 8-((3R,4R)-4-((3,4-dihydro-2H-benzo[b][1,4]dioxepin-6-yl)oxy)-3-methylpiperidin-1-yl)-5-methyl-6-oxo-5,6-dihydro-1,5-naphthyridine-2-carbonitrile]
pIC50 (DGKα; [2]): 7.96
pIC50 (human DGKζ; [3]): 5.37

C[C@@H]1CN(c2cc(=O)n(C)c3ccc(C#N)nc23)CC[C@H]1Oc1cccc(C2CC2)c1 [Example 91, 8-((3R,4R)-4-(3-cyclopropylphenoxy)-3-methylpiperidin-1-yl)-5-methyl-6-oxo-5,6-dihydro-1,5-naphthyridine-2-carbonitrile]
pEC50 ([1]; Homo sapiens, 24 h): 5.36
pIC50 (DGKα; [2]): 7.19
pIC50 (human DGKζ; [3]): 4.85

Cn1c(=O)cc(N2CCC(Oc3ncnc4ccccc34)CC2)c2nc(C#N)ccc21 [Example 71, 5-methyl-6-oxo-8-(4-(quinazolin-4-yloxy)piperidin-1-yl)-5,6-dihydro-1,5-naphthyridine-2-carbonitrile]
pEC50 ([1]; Homo sapiens, 24 h): 4.70
pIC50 (DGKα; [2]): 5.64
pIC50 (human DGKζ; [3]): 5.52

CCC(C)(C)c1ccc(O[C@@H]2CCN(c3c(C#N)c(=O)n(C)c4ccc(C#N)nc34)C[C@H]2C)cc1 (racemic) [Example 229, (+/−) 5-methyl-8-(trans-3-methyl-4-(4-(tert-pentyl)phenoxy)piperidin-1-yl)-6-oxo-5,6-dihydro-1,5-naphthyridine-2,7-dicarbonitrile]
pIC50 (DGKα; [4]): 6.55
pIC50 (human DGKζ; [5]): ≤ 3.60

COc1cc(F)ccc1OC1CCN(c2c(C#N)c(=O)n(C)c3ccc(Cl)nc23)CC1 [Example 36, 6-chloro-4-(4-(4-fluoro-2-methoxyphenoxy)piperidin-1-yl)-1-methyl-2-oxo-1,2-dihydro-1,5-naphthyridine-3-carbonitrile]
pIC50 (DGKα; [2]): 5.80
pIC50 (human DGKζ; [3]): 4.49

CCC(C)(C)c1ccc(O[C@@H]2CCN(c3cc(=O)n(C)c4ccc(C#N)nc34)C[C@H]2C)cc1 (single isomer, unassigned) [Example 84]
pEC50 [1]: 5.92
pIC50 (DGKα; [2]): 7.32
pIC50 (human DGKζ; [3]): 4.64

COc1cc(OC2CCN(c3cc(=O)n(C)c4ccc(C#N)nc34)CC2)nc2cc(Cl)ccc12 [Example 73, 8-(4-((7-chloro-4-methoxyquinolin-2-yl)oxy)piperidin-1-yl)-5-methyl-6-oxo-5,6-dihydro-1,5-naphthyridine-2-carbonitrile]
pEC50 ([1]; Homo sapiens, 24 h): 4.70
pIC50 (DGKα; [2]): 5.66
pIC50 (human DGKζ; [3]): 5.08

Cn1c(=O)cc(N2CCC(Oc3cnc4ccccc4n3)CC2)c2nc(C#N)ccc21 [Example 69, 5-methyl-6-oxo-8-(4-(quinoxalin-2-yloxy)piperidin-1-yl)-5,6-dihydro-1,5-naphthyridine-2-carbonitrile]
pEC50 ([1]; Homo sapiens, 24 h): 4.77
pIC50 (DGKα; [2]): 5.24
pIC50 (human DGKζ; [3]): 5.85

C[C@@H]1CN(c2cc(=O)n(C)c3ccc(C#N)nc23)CC[C@H]1Oc1c(F)cc(F)cc1F [Example 131, 5-methyl-8-((3R,4R)-3-methyl-4-(2,4,6-trifluorophenoxy)piperidin-1-yl)-6-oxo-5,6-dihydro-1,5-naphthyridine-2-carbonitrile]
pIC50 (DGKα; [2]): 5.51
pIC50 (human DGKζ; [3]): ≤ 3.60

CCCCCc1ccc(OC2CCN(c3cc(=O)n(C)c4ccc(C#N)nc34)CC2)cc1 [Example 62, 5-methyl-6-oxo-8-(4-(4-pentylphenoxy)piperidin-1-yl)-5,6-dihydro-1,5-naphthyridine-2-carbonitrile]
pEC50 ([1]; Homo sapiens, 24 h): 4.70
pIC50 (DGKα; [2]): 5.82
pIC50 (human DGKζ; [3]): 5.28

C[C@@H]1CN(c2cc(=O)n(C)c3ccc(C#N)nc23)CC[C@H]1Oc1ccc(OC(C)(C)C)cc1 [Example 86, 8-((3R,4R)-4-(4-(tert-butoxy)phenoxy)-3-methylpiperidin-1-yl)-5-methyl-6-oxo-5,6-dihydro-1,5-naphthyridine-2-carbonitrile]
pEC50 [1]: 6.16
pIC50 (DGKα; read-out: DGKα LIPGLO IC50): 6.14

CC[C@@H]1CN(c2cc(=O)n(C)c3ccc(C#N)nc23)CC[C@H]1Oc1cccc(C(C)C)c1 (racemic) [Example 137, 8-((3R,4R)-3-ethyl-4-(3-isopropylphenoxy)piperidin-1-yl)-5-methyl-6-oxo-5,6-dihydro-1,5-naphthyridine-2-carbonitrile]
pIC50 (DGKα; [2]): 7.44
pIC50 (human DGKζ; [3]): 6.04

C[C@@H]1CN(c2cc(=O)n(C)c3ccc(C#N)nc23)CC[C@H]1Oc1ccc(OC(C)(C)C)cc1 [Example 87, 8-((3R,4R)-4-(4-(tert-butoxy)phenoxy)-3-methylpiperidin-1-yl)-5-methyl-6-oxo-5,6-dihydro-1,5-naphthyridine-2-carbonitrile]
pEC50 [1]: 5.70
pIC50 (DGKα; [2]): 7.30

C[C@@H]1CN(c2cc(=O)n(C)c3ccc(C#N)nc23)CC[C@@H]1Oc1cccc(C2CC2)c1 [Example 181, 8-((3R,4S)-4-(3-cyclopropylphenoxy)-3-methylpiperidin-1-yl)-5-methyl-6-oxo-5,6-dihydro-1,5-naphthyridine-2-carbonitrile]
pIC50 (DGKα; [2]): 7.21
pIC50 (human DGKζ; [3]): 5.85

CCC(C)(C)c1ccc(O[C@@H]2CCN(c3c(C#N)c(=O)n(C)c4ccc(C#N)nc34)C[C@H]2C)cc1 (single isomer, unassigned) [Example 230, 5-methyl-8-(trans-3-methyl-4-(4-(tert-pentyl)phenoxy)piperidin-1-yl)-6-oxo-5,6-dihydro-1,5-naphthyridine-2,7-dicarbonitrile (rel)]
pIC50 (DGKα; [4]): 5.48
pIC50 (human DGKζ; [5]): ≤ 3.60

Cn1c(=O)cc(N2CCC(Oc3ccc(C(F)(F)F)cn3)CC2)c2nc(C#N)ccc21 [Example 77, 5-methyl-6-oxo-8-(4-((5-(trifluoromethyl)pyridin-2-yl)oxy)piperidin-1-yl)-5,6-dihydro-1,5-naphthyridine-2-carbonitrile]
pIC50 (DGKα; [2]): 5.52
pIC50 (human DGKζ; [3]): 5.52

CCc1cnc(O[C@H]2CCN(c3cc(=O)n(C)c4ccc(C#N)nc34)C[C@H]2C)nc1 [Example 221, 8-((3R,4S)-4-((5-ethylpyrimidin-2-yl)oxy)-3-methylpiperidin-1-yl)-5-methyl-6-oxo-5,6-dihydro-1,5-naphthyridine-2-carbonitrile]
pIC50 (DGKα; [4]): 6.46
pIC50 (human DGKζ; [5]): 5.74

CC[C@@H]1CN(c2cc(=O)n(C)c3ccc(C#N)nc23)CC[C@H]1Oc1cccc(C(F)(F)F)c1 [Example 140, 8-((3R,4R)-3-ethyl-4-(3-(trifluoromethyl)phenoxy)piperidin-1-yl)-5-methyl-6-oxo-5,6-dihydro-1,5-naphthyridine-2-carbonitrile]
pEC50 ([1]; Homo sapiens, 24 h): 5.92
pIC50 (DGKα; [2]): 6.89

C[C@@H]1CN(c2cc(=O)n(C)c3ccc(C#N)nc23)CC[C@@H]1Oc1cccc(C2CC2)c1 [Example 180, 8-((3R,4S)-4-(3-cyclopropylphenoxy)-3-methylpiperidin-1-yl)-5-methyl-6-oxo-5,6-dihydro-1,5-naphthyridine-2-carbonitrile]
pIC50 (DGKα; [2]): 7.35
pIC50 (human DGKζ; [3]): 6.00

CC[C@@H]1CN(c2cc(=O)n(C)c3ccc(C#N)nc23)CC[C@H]1Oc1cccc(OC(F)(F)F)c1 (single isomer, unassigned) [Example 162]
pIC50 (DGKα; [2]): 5.77
pIC50 (human DGKζ; [3]): 5.96

CC[C@@H]1CN(c2cc(=O)n(C)c3ccc(C#N)nc23)CC[C@H]1Oc1cccc(OC(F)(F)F)c1 (single isomer, unassigned) [Example 163]
pIC50 (DGKα; [2]): 7.38
pIC50 (human DGKζ; [3]): 6.44

C[C@@H]1CN(c2cc(=O)n(C)c3ccc(C#N)nc23)CC[C@@H]1Oc1ccc(OC(C)(C)C)cc1 [Example 172, 8-((3R,4S)-4-(4-(tert-butoxy)phenoxy)-3-methylpiperidin-1-yl)-5-methyl-6-oxo-5,6-dihydro-1,5-naphthyridine-2-carbonitrile]
pEC50 ([1]; Homo sapiens, 24 h): 5.82
pIC50 (DGKα; read-out: DGKα LIPGLO IC50): 6.21

Cn1c(=O)cc(N2CCC(Oc3ccc(C4CCCCC4)cc3)CC2)c2nc(C#N)ccc21 [Example 63, 8-(4-(4-cyclohexylphenoxy)piperidin-1-yl)-5-methyl-6-oxo-5,6-dihydro-1,5-naphthyridine-2-carbonitrile]
pIC50 (DGKα; [2]): 6.13
pIC50 (human DGKζ; [3]): 4.42

C[C@@H]1CN(c2cc(=O)n(C)c3ccc(C#N)nc23)CC[C@@H]1Oc1ccc(OC(C)(C)C)cc1 (single isomer, unassigned) [Example 174]
pEC50 [1]: 5.44
pIC50 (DGKα; read-out: DGKα LIPGLO IC50): 5.80

C[C@@H]1CN(c2cc(=O)n(C)c3ccc(C#N)nc23)CC[C@@H]1Oc1ccc(OC(C)(C)C)cc1 (single isomer, unassigned) [Example 173]
pEC50 [1]: 5.96
pIC50 (DGKα; [2]): 6.13

— US11964973B2 (priority 2019, dated 2024)
